Test results published in patent US7183061B2, “Method of expressing Heliothis ecdysone receptor fusion protein” (Syngenta Limited, priority 1996, dated 2007).

Molecular target: T1, chimeric ecdysone receptor and reporter gene cassette (pES1) (UniProt O18473+P04150)
T1 construct: expressed in transfected cells; host or cells: stably transformed tobacco plants (A9)
T1 sequence (P04150+O18473 with tags, fused parts or gaps): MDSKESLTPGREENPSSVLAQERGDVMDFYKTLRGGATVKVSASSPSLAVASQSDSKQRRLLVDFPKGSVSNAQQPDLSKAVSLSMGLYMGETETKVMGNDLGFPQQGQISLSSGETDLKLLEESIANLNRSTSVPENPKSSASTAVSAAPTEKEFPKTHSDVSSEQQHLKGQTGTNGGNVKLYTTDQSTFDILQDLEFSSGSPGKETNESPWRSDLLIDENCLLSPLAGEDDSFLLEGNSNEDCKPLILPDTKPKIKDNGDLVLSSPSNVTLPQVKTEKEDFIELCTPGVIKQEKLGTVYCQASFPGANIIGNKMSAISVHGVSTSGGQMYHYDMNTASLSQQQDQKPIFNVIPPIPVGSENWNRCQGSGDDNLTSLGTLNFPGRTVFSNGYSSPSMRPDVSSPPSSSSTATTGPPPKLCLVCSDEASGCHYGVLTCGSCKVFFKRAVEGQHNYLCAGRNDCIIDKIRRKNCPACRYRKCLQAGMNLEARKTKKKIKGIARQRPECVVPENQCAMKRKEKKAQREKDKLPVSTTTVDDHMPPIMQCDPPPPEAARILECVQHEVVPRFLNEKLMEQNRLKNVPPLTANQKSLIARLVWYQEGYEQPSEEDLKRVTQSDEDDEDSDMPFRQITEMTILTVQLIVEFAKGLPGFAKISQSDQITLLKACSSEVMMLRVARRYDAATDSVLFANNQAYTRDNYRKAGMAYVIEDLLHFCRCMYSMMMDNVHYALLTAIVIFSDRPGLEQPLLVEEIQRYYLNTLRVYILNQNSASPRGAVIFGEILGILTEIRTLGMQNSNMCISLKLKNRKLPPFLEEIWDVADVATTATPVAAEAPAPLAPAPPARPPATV
Assay: GUS activity in stably transformed tobacco plants (pES1)
Type: in vivo, Heliothis virescens
Excerpt: The methodology described below was used to produce four different stable Tobacco vectors. The method involves three steps: • 1. pbluescript SK HindIII/EcoRI vector was ligated to either GRE6-4635SCaMVGUSNOS HindIII/EcoRI (from p221.10GRE6) or GRE6-6035SCaMVGUSNOS HindIII/EcoRI (from p221.9GRE6) resulting in plasmid pSK-46 and pSK-60. • 2. This step involves the addition of the chimeric receptor (35SGRHEcRNOS or 35SGRVP16HEcRNOS) to pSK-60 or pSK-46. Thus a pSK-60 (or pSK-46) XbaI vector was ligated with either the 3.4 kb 35SGRHEcRNOS XbaI or the 3.0 kb 35SGRVP16HEcRNOS XbaI DNA fragment to produce pSKES1 (pSKGRE6-6035SCaMVGUSNOS-35SGRHEcRNOS), pSKES2 (pSKGRE6-4635 SCaMVGUSNOS-35 SGRHEcRNOS), pSKES3 (pSKGRE6-6035SCaMVGUSNOS-35SGRVP16HEcRNOS) and pSKES4 (pSKGRE6-4635SCaMVGUSNOS-35SGRVP16HEcRNOS). • 3. Transfer from pBluescript based vectors to binary vectors. The transfer of the ES1 (FIG. 29) ES2 (FIG. 30), ES3 (FIG. 31) or ES4 (FIG. 32) DNA fragments into the binary vector JR1 involves five steps: • (i) Restriction enzyme digestion of pSKES1 (ES2, ES3, and ES4) with ApaI and NotI to liberate the insert from the vector pBluescript. • (ii) The two DNA fragments were BamHI methylated for 2 hours at 37° C. in TRIS-HCl, MgCl, 80 μM SAM (S-adenosylmethionine) and 20 U of BamHI methylase. • (iii) Ligate an ApaI/NotI linker onto the fragment. The linker was designed to have an internal BamHI site: • ApaBNot1 5′ cattggatccttagc 3′ (SEQ ID NO: 46) and • ApaBNot2 5′ […] 3′ (SEQ ID NO: 47). • (iv) Restriction enzyme digest the protected and linkered fragment with BamHI and fractionate the products on a 1% (w/v) agarose gel. The protected DNA fragment (5.5 kb) was cut out of the gel and purified. • (v) A ligation of JRI BamHI vector with the protected band was carried out to produce JRIESI (JRIES2, JRIES3 or JRIES4). The DNA of the recombinant was characterised by restriction mapping and the sequence of the junctions determined. […]

Measured: GUS activity

CCc1ccc(C(=O)NN(C(=O)c2cc(C)cc(C)c2)C(C)(C)C)cc1 [RH5992, 3,5-dimethylbenzoic acid 1-1(1,1-dimethylethyl)-2(4-ethylbenzoyl)hydrazide]
significantly elevated: 5 mM foliar application, 8 week old glasshouse grown tobacco plants | seedlings grown hydroponically in the presence of inducer | transgenic tobacco treated in cell culture, 100 μM in MS media
